Measurements from patent US20040242502A1, “Semi-synthetic saponin analogs with carrier and immune stimulatory activities for DNA and RNA vaccines” (Galenica Pharmaceuticals, Inc., priority 2003, published 2004).
Values joined by “and” are separate entries in the source; they are usually repeats but may differ in a detail not shown here. Identical values can stand only once.

Test system: Female Balb/c mice
Assay: Immunization of Balb/c mice with OVA cDNA in the presence and absence of DMPS; anti-OVA antibody ELISA of serum
Type: in vivo
Details: anti-OVA ELISA on OVA coated plates, serum dilution 1:100, bled 14 days after last immunization, i.m. days 1 and 15, 20 OVA DNA alone or +50 DMPS
Procedure: Female Balb/c mice were immunized intramuscularly at days 1 and 15 with 0.2 mL of phosphate buffered saline solution (PBS) containing 20 μg of chicken OVA cDNA alone or with 50 μg of 3-dimethylamino-1-propylamino-DS-saponin (DMPS). The complete OVA cDNA was sub-cloned into a mammalian expression vector containing the human β-actin promotor and the neomycin resistant gene, under control of the SV40 promotor, to yield pAC-Neo-OVA. Negative control animals received PBS only. Animals were bled 14 days after the last immunization. Total IgG and IgG2a were determined by ELISA using OVA coated plates and a serum dilution of 1:100. The serum dilution was incubated at 37° C. for 1 hour and the plates were washed. After incubation with anti IgG-HRP conjugate, the plates were washed and developed with a TMB substrate for 15 minutes at room temperature, stopped by the addition of 0.18 M sulfuric acid, and read at 450 nm.

## 3-dimethylamino-1-propylamino-DS-saponin [DMPS]
Average of 5 mice ± spread
  Absorbance (450 nm), Average: 0.188 ± 0.093
Mice 1-5
  Absorbance (450 nm), individual mice: 0.400 and 0.210 and 0.092 and 0.140 and 0.100
